Assay results as given in article PMC4839570, “Novel Anthra[1,2-c][1,2,5]Thiadiazole-6,11-Diones as Promising Anticancer Lead Compounds: Biological Evaluation, Characterization & Molecular Targets Determination” (PLoS ONE, 2016).
Where two headings read alike, the source gives them in different places.

Tests used:
UO-31 = experiment: NCI-60 cytotoxicity screen; assay type: cell-based
NCI-H522 = experiment: JFCR-39 cytotoxicity screen; assay type: cell-based
MDA-MB-231/ATCC = experiment: NCI-60 cytotoxicity screen; assay type: cell-based
[1] = system: NCI 60 human cancer cell lines; experiment: NCI-60 screen, means, ranges and selectivity over panels; assay type: cell-based; settings: for GI50: Homo sapiens
Description: Both NSC745885 and NSC757963 satisfied the pre-determined threshold inhibition criteria of the NCI-60 One-Dose Screening, so they were tested against the panels of 60 cancer cell lines of NCI (NCI-60) and 39 cancer cell lines of JFCR (JFCR-39), each cell line was tested at five small doses of our compounds. Results are expressed as the 50% growth inhibition concentration (GI50), the 50% lethal concentration (LC50) and the total growth inhibition (TGI), compared to the values of untreated control cells.
To characterize the selectivity of NSC745885 and NSC757963 further among the different types of cancer, we determined their selectivity ratios towards each cell line subpanel used in the cytotoxicity experiments. […] The promising activity of this compound is evident from the small mean GI50 values. […] The strongest activity was towards the leukemia subpanel and the least one was towards the colon cancer subpanel. […] The strongest activity was towards the melanoma subpanel and the least one was towards the colon cancer subpanel.
All cell lines were published before.

SF-268 = experiment: JFCR-39 cytotoxicity screen; assay type: cell-based
MDA-MB-468 = experiment: NCI-60 cytotoxicity screen; settings: Homo sapiens, MDA-MB-468, read-out: mean log10 of the GI50 values (converted)
SNB-75 = experiment: JFCR-39 cytotoxicity screen; assay type: cell-based
A549/ATCC = experiment: NCI-60 cytotoxicity screen; assay type: cell-based
HCT-116 = experiment: NCI-60 cytotoxicity screen; assay type: cell-based
[2] = system: NF-κB p65 subunit translocation in OVCAR-3 cells; experiment: NF-κB inhibition by immunocytochemical fluorescent staining; assay type: cell-based, human; settings: 5 μM
Description: Inhibition of NF-κB was detected according to Ataie-Kachoie et al.. Briefly, each group of tested cells were seeded on coverslips treated with HCl and ethanol, and autoclaved prior to use. Immunostaining of the p65 subunit of NF-κB was done by permeabilizing the cells with Triton […], then by treating the cells with anti-NF-κB p65 rabbit monoclonal primary antibody [E379] Abcam # ab32536, followed by Alexa Fluor® 488 Donkey anti-rabbit IgG secondary antibody Biolegend # 406416. Nuclei of cells were stained with 4',6-diamidino-2-phenylindole (DAPI). Images were acquired using fluorescence microscope. Tested cells were divided into five groups which are no treatment control, no primary antibody control, PDTC (50 μM) treated control, NSC745885 (5 μM) and NSC757963 (5 μM) treated controls.

HT-29 = experiment: JFCR-39 cytotoxicity screen; assay type: cell-based
OVCAR-4 = experiment: JFCR-39 cytotoxicity screen; assay type: cell-based
SR = experiment: NCI-60 cytotoxicity screen; assay type: cell-based; settings: Homo sapiens, Fig 7, read-out: mean log10 of the GI50 values (converted)
MCF7 = experiment: NCI-60 cytotoxicity screen; assay type: cell-based
M14 = experiment: NCI-60 cytotoxicity screen; assay type: cell-based
SN12C = experiment: NCI-60 cytotoxicity screen; assay type: cell-based
NCI-H23 = experiment: JFCR-39 cytotoxicity screen; assay type: cell-based
U251 = experiment: JFCR-39 cytotoxicity screen; assay type: cell-based
SNB-78 = experiment: JFCR-39 cytotoxicity screen; assay type: cell-based
NCI-H460 = experiment: NCI-60 cytotoxicity screen; assay type: cell-based
MOLT-4 = experiment: NCI-60 cytotoxicity screen; assay type: cell-based
[3] = Homo sapiens, Fig 7, read-out: mean log10 of the GI50 values (converted)
[4] = Homo sapiens, five-dose, read-out: GI50
[5] = Homo sapiens, five-dose, read-out: LC50 (the source's name)
[6] = Homo sapiens, read-out: LC50 (the source's name)

## O=C1c2ccccc2C(=O)c2c1ccc1nsnc21 [NSC745885, anthra[1,2-c][1,2,5]thiadiazole-6,11-dione]
UO-31; [3]
  GI50: 1780 nM
UO-31; [4]
  GI50: 1620 nM
UO-31; [5]
  CC50: 6010 nM
UO-31; five-dose
  TGI: 3120 nM
NCI-H522
  TGI: 3000 nM
NCI-H522; Homo sapiens
  GI50: 1300 nM
NCI-H522; [6]
  CC50: 6700 nM
MDA-MB-231/ATCC; [3]
  GI50: 2140 nM
MDA-MB-231/ATCC; [4]
  GI50: 1750 nM
MDA-MB-231/ATCC; [5]
  CC50: > 100000 nM
MDA-MB-231/ATCC; five-dose
  TGI: 5900 nM
[1]
  selectivity ratios of the NCI subpanels other than leukemia: less than 3
[1]; Fig 7, read-out: MG-MID of mean log10 GI50 (converted)
  GI50: 2400 nM
[1]; NCI Breast Cancer, read-out: Mean GI50 of subpanel
  GI50: 1540 nM
[1]; NCI CNS Cancer, read-out: Mean GI50 of subpanel
  GI50: 1910 nM
[1]; NCI Colon Cancer, read-out: Mean GI50 of subpanel
  GI50: 7230 nM
[1]; NCI Leukemia, read-out: Mean GI50 of subpanel
  GI50: 966 nM
[1]; NCI Melanoma, read-out: Mean GI50 of subpanel
  GI50: 1650 nM
[1]; NCI Non-Small Cell Lung Cancer, read-out: Mean GI50 of subpanel
  GI50: 5370 nM
[1]; NCI Ovarian Cancer, read-out: Mean GI50 of subpanel
  GI50: 2240 nM
[1]; NCI Prostate Cancer, read-out: Mean GI50 of subpanel
  GI50: 2450 nM
[1]; NCI Renal Cancer, read-out: Mean GI50 of subpanel
  GI50: 3650 nM
[1]; all NCI subpanels, read-out: mean GI50 values of the NCI 60 subpanels, range
  GI50: 970 to 7200 nM
[1]; equivalent to MID, read-out: Mean GI50 of all NCI-60 cell line panels
  GI50: 3230 nM
[1]; five-dose, read-out: NCI-60 GI50 values, range over cell lines
  GI50: 160 to 17400 nM
[1]; NCI Breast Cancer
  Selectivity ratio: 2.1
[1]; NCI CNS Cancer
  Selectivity ratio: 1.69
[1]; NCI Colon Cancer
  Selectivity ratio: 0.45
[1]; NCI Leukemia
  Selectivity ratio: 3.35
[1]; NCI Melanoma
  Selectivity ratio: 1.96
[1]; NCI Non-Small Cell Lung Cancer
  Selectivity ratio: 0.6
[1]; NCI Ovarian Cancer
  Selectivity ratio: 1.44
[1]; NCI Prostate Cancer
  Selectivity ratio: 1.32
[1]; NCI Renal Cancer
  Selectivity ratio: 0.89
SF-268
  TGI: 3800 nM
SF-268; Homo sapiens
  GI50: 2000 nM
SF-268; [6]
  CC50: 7100 nM
MDA-MB-468
  GI50: 1820 nM
SNB-75
  TGI: 3900 nM
SNB-75; Homo sapiens
  GI50: 2200 nM
SNB-75; [6]
  CC50: 7000 nM
A549/ATCC; [3]
  GI50: 5750 nM
A549/ATCC; [4]
  GI50: 14700 nM
A549/ATCC; [5]
  CC50: 91000 nM
A549/ATCC; five-dose
  TGI: 36600 nM
HCT-116; [3]
  GI50: 2340 nM
HCT-116; [4]
  GI50: 1930 nM
HCT-116; [5]
  CC50: > 100000 nM
HCT-116; five-dose
  TGI: 5400 nM
[2]
  nuclear translocation of the NF-κB p65 subunit: significantly capable of preventing the nuclear translocation of the NF-κB p65 subunit
HT-29
  TGI: 39000 nM
HT-29; Homo sapiens
  GI50: 19000 nM
HT-29; [6]
  CC50: 81000 nM
OVCAR-4
  TGI: 2900 nM
OVCAR-4; Homo sapiens
  GI50: 1500 nM
OVCAR-4; [6]
  CC50: 5500 nM
SR
  GI50: 6920 nM
MCF7; [3]
  GI50: 1380 nM
MCF7; [4]
  GI50: 1530 nM
MCF7; [5]
  CC50: 7290 nM
MCF7; five-dose
  TGI: 3340 nM
M14; [3]
  GI50: 2290 nM
M14; [4]
  GI50: 2150 nM
M14; [5]
  CC50: > 100000 nM
M14; five-dose
  TGI: 4850 nM
SN12C; [3]
  GI50: 1780 nM
SN12C; [4]
  GI50: 1330 nM
SN12C; [5]
  CC50: 7560 nM
SN12C; five-dose
  TGI: 3170 nM
NCI-H23
  TGI: 2900 nM
NCI-H23; Homo sapiens
  GI50: 1100 nM
NCI-H23; [6]
  CC50: 8000 nM
U251
  TGI: 3100 nM
U251; Homo sapiens, U-251
  GI50: 1600 nM
U251; Homo sapiens, U-251, read-out: LC50 (the source's name)
  CC50: 5800 nM
SNB-78
  TGI: 3400 nM
SNB-78; Homo sapiens
  GI50: 1700 nM
SNB-78; [6]
  CC50: 6900 nM
NCI-H460; Homo sapiens, NCI-460, five-dose, read-out: GI50
  GI50: 3270 nM
NCI-H460; Homo sapiens, NCI-460, five-dose, read-out: LC50 (the source's name)
  CC50: 47300 nM
NCI-H460; Homo sapiens, NCI-H460, Fig 7, read-out: mean log10 of the GI50 values (converted)
  GI50: 2450 nM
NCI-H460; NCI-460, five-dose
  TGI: 14300 nM
MOLT-4; [3]
  GI50: 891 nM
MOLT-4; [4]
  GI50: 490 nM
MOLT-4; [5]
  CC50: 4710 nM
MOLT-4; five-dose
  TGI: 1840 nM
